Molecules are shown by their SMILES.

One experiment has as its system MRSA COL (NRS100). In words: MIC, broth micro-dilution technique (CLSI). It is filed as cell-based, Staphylococcus aureus. The conditions noted are these: Table 1 protocol: serial 2-fold dilutions starting from 64 μg/ml; 35° C., 22 hours. Put shortly: (§1)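 CLSI broth microdilution in cation-adjusted Mueller Hinton broth with 0.002% v/v Tween-80. Compounds were serially 2-fold diluted over 10 concentrations from 64 μg/ml, or from 4 μg/mL in a modified protocol; inoculum at final OD600 0.0005, incubated 35° C for 22 hours.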

In experiment [1] the test system is MRSA strain USA300. In words: Time-kill assay. It is filed as cell-based, Staphylococcus aureus. The conditions noted are these: 1 ug/mL imipenem plus 16 ug/mL Compound 155; initial density 1*10^7 cfu/mL; FIG. 2. Here is the method:
Time-kill experiments enable quantification of rate of bacterial growth or death in the presence of a fixed concentration of one or more antibiotics (Arhin. F., et. al., Current Protocols in Microbiology 17.1.1-17.1.22, February 2010). Time-kill experiments were performed in 96-well incubation plates using Mueller Hinton II Broth+0.002% Tween-80 as the growth media. Individual wells contained imipenem alone, Compound 155 alone, or a combination of both agents at various concentrations. MRSA strain USA300 was grown overnight at 35° C. on Mueller Hinton Agar plates, and colonies were suspended in Mueller Hinton II Broth+0.002% Tween-80 to a final density of 2*10^8 cfu/mL. To each well of the incubation plates, 5 uL of this suspension were added, resulting in an initial density of 1*10^7 cfu/mL. Plates were incubated at 35° C., and at various time points 30 ul samples were removed, mixed 1:1 with 25 mg/ml activated carbon, serially diluted in sterile phosphate buffered saline supplemented with 0.05% Tween 20, and spotted onto Mueller Hinton Agar plates to enable cfu quantification. Colonies were counted and the cfu/ml at each time point calculated by based on the dilution factor and volume spotted.

For experiment [2], the system named is MRSA strain USA300. In words: Checkerboard synergy assay (2D MIC) with imipenem. It is filed as cell-based, Staphylococcus aureus. Particulars: many points of the isobologram (FIG. 1); synergy defined as sum of the FICs ≤0.5; 35° C., 22 hours. As for the experimental part: 2D MIC assay or “checkerboard assays” are the most common method used to quantify synergistic or antagonistic interactions between two antibiotics with respect to potency (Hallander, H. O., et al., Antimicrob. Agents Chemother. 1982 22:743-752). In this assay in each axis of a 96-well plate contains a 2-fold dilution of a given agent, such that each well contains a unique combination of the agents being tested.
To create a checkerboard dilution scheme, imipenem was diluted in Mueller Hinton II Broth+0.002% Tween-80 to twice the final desired concentration, and six 2-fold serial dilutions were performed in the same media yielding seven imipenem concentrations. Dilutions of Compound 155 were prepared similarly except that ten dilutions were performed for a total of eleven concentrations. […]
MRSA strain USA300 was grown overnight at 35° C. on Mueller Hinton Agar plates, and colonies were suspended in Mueller Hinton II Broth+0.002% Tween-80 to a final density of 1*10^7 cfu/ml. […] The plate was incubated at 35° C. for 22 hours after which growth was determined via visual inspection. For each sub-MIC concentration of imipenem, the concentration of Compound 155 required to prevent visible growth was recorded, and the fractional inhibitor concentration (FIC) of each agent was calculated by dividing the concentration of each agent by MIC of the agent alone. […]

The test system of experiment [3] is Methicillin Resistant Staphylococcus aureus strain USA 300 (NRS384). Put plainly: MIC, broth micro-dilution technique (CLSI). The conditions noted are these: Table 1 protocol: serial 2-fold dilutions starting from 64 μg/ml; 35° C., 22 hours. It is filed as cell-based. Put shortly: as §1
The test system of experiment [4] is Escherichia coli MC4100 harboring the IMP4213. In words: MIC, broth micro-dilution technique (CLSI). It is filed as cell-based. The conditions noted are these: Table 1 protocol: serial 2-fold dilutions starting from 64 μg/ml; 35° C., 22 hours. The procedure, abridged: as §1

Turning to `CCCCCCCCCCNCCC(=O)N[C@@H](CCCCN)C(=O)N(C)[C@@H]1C(=O)N[C@@H](C)C(=O)N[C@H](C(=O)N[C@@H](C)C(=O)N2CCC[C@H]2C(N)=O)Cc2ccc(O)c(c2)-c2cc1ccc2O.O=CO` [Compound 155], the “MIC (μg/mL) (COL)” value against MRSA COL (NRS100) was 1.3 µg/mL. The “time-kill: reduction of viable cells, combination compared with either agent alone” value in the experiment on MRSA strain USA300 [1] was “synergistic”. Further, the “sum of the FICs (fractional inhibitor concentration) of Compound 155 and imipenem” value in the experiment on MRSA strain USA300 [2] is below 0.5. The “MIC (μg/mL) S. aureus” value in experiment [3] was 2.8 µg/mL. The “MIC (μg/mL) E. coli” value in experiment [4] was found to be 64 µg/mL.
